Reference: PMC5704756, “Hydrolysis, polarity, and conformational impact of C-terminal partially fluorinated ethyl esters in peptide models” (Beilstein Journal of Organic Chemistry, 2017)
Several values for one entry are separate records, joined by “and”; a condition that tells them apart may be missing. Identical values can stand only once. Like-named read-outs stand apart in the source and are kept apart here. Peptide text beside a SMILES is read from it. * marks the point of attachment. X1 = FC(F)CO*

Columns and labels:
[1] = Partitioning between octan-1-ol and water (NMR detection); type: physicochemical; settings: for logP at 24 h: 298 K, 24 hours partitioning, NMR; for ΔlogP vs 4: relative to compound 4
Experimental: To characterize the lipophilicity, esters 1–5 were subjected to 24 hours of partitioning between octan-1-ol and water at 298 K. The resulting partition is illustrated in Figure 3. […] The lipophilicity of 2,2-difluoroethyl derivative 4 is nearly identical to that of parent ethyl ester 2, and the relative difference in the logP from the increase (5 vs 4, ΔlogP = +0.53 ± 0.13) and decrease (3 vs 4, ΔlogP = −0.45 ± 0.13) in the number of fluorine atoms are equivalent to one methyl group difference (2 vs 1, ΔlogP = +0.44 ± 0.08). The amplitude of the change is similar to that reported recently for the corresponding fluorinated ethanols. Importantly, C-terminal esterification maintains a much higher lipophilicity compared with the C-terminal amide 7 (Table 1).
To 4–5 mg analyte, octan-1-ol (1.00 mL) and deionized water (1.00 mL) were added. The mixture was shaken gently at ambient temperature (298 ± 2 K) for 24 hours. Each phase (200 μL) was sampled using identical NMR tubes, and acetonitrile-d3 (300 μL) was added to each sample. The NMR measurements were performed by ^1H or ^19F detection at 298 K using calibrated 90-degree pulses and one-scan experiments in order to ensure complete pre-relaxation. The same acquisition parameters were used for the octan-1-ol and water samples; for processing, only the zero phase was adjusted. The spectra were baseline corrected, and equivalent resonances were integrated. The ratio between the signal intensities was considered as the partitioning constant. The partitioning experiments were performed in triplicate. Subsequent addition of water and octan-1-ol was performed in forward and reverse manner, and the resulting partitioning constants were identical within experimental error.

[2] = parameters: method as in doi:10.1002/ijch.201600106; settings: 310 K, amide rotation, value is k∙10^3, ref [69]; cited from earlier work
[3] = Amide rotational thermodynamics and kinetics (trans/cis isomerism) by NMR / EXSY; type: physicochemical; settings: for Ktrans/cis in C6D6: C6D6 (ε 2.27); for Ktrans/cis in C6D6 / Ktrans/cis in CD2Cl2 / Ktrans/cis in CD3CN / Ktrans/cis in CD3OD / Ktrans/cis in CDCl3 / Ktrans/cis in D2O: 298 K; for Ktrans/cis in C6D6 / Ktrans/cis in D2O: analyte 50 ± 10 mM; for k∙10^3 cis→trans in C6D6 / k∙10^3 trans→cis in C6D6: C6D6, 298 K; for k∙10^3 cis→trans in C6D6 / k∙10^3 trans→cis in C6D6 / k∙10^3 cis→trans in D2O / k∙10^3 trans→cis in D2O: EXSY NMR, amide rotation, value is k∙10^3; for Ktrans/cis in CD2Cl2: CD2Cl2 (ε 8.93); for Ktrans/cis in CD3OD: CD3OD (ε 32.7); for Ktrans/cis in CDCl3: CDCl3 (ε 4.81); for Ktrans/cis in D2O: D2O (ε 80.1), 1H/19F NMR; for k∙10^3 cis→trans in D2O / k∙10^3 trans→cis in D2O: 310 K
Text: For 1–5, we found the trans/cis ratios ≈ 5 for all five esters when measured in aqueous medium; the kinetic parameters of the amide rotation were also nearly identical (Table 2). We then noticed that the trans/cis ratios measured for the fluorine-labeled esters 3–5 in nonpolar solvents (such as benzene) were systematically higher relative to the reference compounds 1 and 2. We tested the relative increase in the trans-amide preference ΔΔG as a function of solvent (Equation 4) and found a dependence of this parameter on the dielectric constant, as would be expected from an electrostatic interaction between the polar alkoxy group and the amide moiety (Figure 4).
The amide rotational thermodynamic and kinetic measurements were performed by NMR as described in [50, 68]. The equilibrium ratio between the rotameric states was obtained from the ^1H, ^19F and ^19F{^1H} (inverse-gated decoupling) spectra at 298 K by integration. The kinetics was measured in ^1H and/or ^19F{^1H} z-cross-relaxation experiments at either 310 K (for deuterium oxide samples) or 298 K (for benzene samples). The Jαβ-coupling values were obtained by visual inspection of the α-CH resonances in the ^1H NMR spectra, and the accuracy was defined by the length of the time domain spectrum at approximately 0.3 Hz. The semi-empirical calculations were performed by using the PM6 algorithm from the MOPAC package. DFT geometry optimization of the 5 amide rotamers was performed using B88-PW91 GGA with the DZVP basis set.

[4] = Hydrolytic stability of esters 1–5 in aqueous potassium phosphate buffer, monitored by 1H and 19F NMR; type: physicochemical; settings: for τ½, min (aq buffer): ester hydrolysis; for half-life at 0.5 mM: aqueous potassium phosphate buffer
Text: The kinetic stability of the ester linkage in the aqueous medium is of critical importance, as it further defines the time window for the reactions with the corresponding esters under the biologically relevant conditions of aqueous buffers. Hydrolysis of the C-terminal esters has been fairly well described in the literature, indicating the hydrolysis occurs via a pseudo-first order reaction in a buffered medium assuming that [HO^−] is constant (Equations 1–3): […]
Next, we determined the half-life values following the above mentioned kinetic model for esters 1–5 in aqueous medium at pH 11 and 298 K (Figure 2). […] For the subsequent fluorine atoms, the hydrolysis rate increased by a factor of 3–4 for each appended fluorine atom. […] Extrapolation to pH 8.0 gives a value of 107 ± 28 hours. (This procedure requires multiplication by 1000.) We experimentally determined the half-life of 5 at pH 8 to be 102 ± 2 hours, which agrees well with the extrapolation. The mutual consistency of the values determined with different kinetic modes (minutes at pH 11, days at pH 8) provides a good indication of their accuracy.
Aqueous potassium phosphate buffer (100 mM) at pH 11.0 or 8.0 was mixed with 1:10 (v/v) deuterium oxide to give 550 μL of 91 mM buffer. The analyte 1–5 was added from a 200 mM stock solution in deuterium oxide to give 0.5 mM analyte. The first NMR spectra were collected within 4 min following addition of the analyte. The monitoring was continued by recording ^1H and ^19F NMR spectra at regular time points until >50% hydrolysis. Ambient temperature was maintained at 298 ± 1 K. The decay of the integral intensity of the analyte was quantified by integration. Plotting the logarithm of the intensity versus time delivered the kinetic constant, which was converted to the half-life time (squared correlation coefficient > 0.90). The experiments were performed in triplicate.

[5] = Hydrolysis of C-terminal 2,2-difluoroethyl esters of oligopeptides in buffered deuterium oxide by 19F NMR; type: physicochemical; settings: for τ½ of ester hydrolysis (value outside brackets) / τ½ of ester hydrolysis (value in brackets, alternative kinetic model): buffered deuterium oxide, pH 7.0, 298 K; for τ½ of ester hydrolysis (value outside brackets): Equation 7 (zero order), first (zero) order model; for τ½ of ester hydrolysis (value in brackets, alternative kinetic model): first (zero) order kinetic model; for charge-induced hydrolysis acceleration factor vs 8b: pH 7, 9b, 10b vs 8b
Text: Finally, we tested hydrolytic stability in esterified peptides 8b, 9b and 10b by observing hydrolysis of the ester using ^19F NMR in buffered deuterium oxide (pH 7). We expected pseudo-first order kinetics as for the hydrolysis of esters 1–5 at pH 11. Nonetheless, for the peptide esters 8b, 9b and 10b, the experimental decay (Figure 7) of the ester concentration resembled pseudo-zero order kinetics, which was also observed for another amino acid ester hydrolysis not shown here.
Circular dichroism spectra were recorded in a 1 mm quartz cell at 298 K in methanol (HPLC grade) or aqueous potassium phosphate buffer (50 mM, pH 7.01 at 297 K). The peptide concentration was 100 μM as determined gravimetrically. The mean residue absorption difference Δε was calculated assuming 6 residues for peptides 8a–c, 10a–c and 3 residues for peptides 9a–c. Hydrolysis was measured in deuterium oxide solution of a 150 mM potassium phosphate buffer. The buffer pH 7.01 was adjusted in water at 298 K. It was then lyophilized, then dissolved in deuterium oxide. The peptides were dissolved in the buffer, and the resulting samples were kept at 298 ± 2 K, while the ^19F NMR measurements were conducted at several time points. The starting concentrations of the analytes were 8 mM for 8b, 5 mM for 9b and 2.5 mM for 10b. The half-life was calculated using the first (zero) order kinetic model.

[6] = pH 11.0, 298 K, pseudo-first order

Row | Compound | logP at 24 h ([1]; octan-1-ol/water) | Ktrans/cis in C6D6 [3] | Ktrans/cis in CD2Cl2 [3] | Ktrans/cis in CD3CN [3] | Ktrans/cis in CD3OD [3] | Ktrans/cis in CDCl3 [3] | Ktrans/cis in D2O [3] | τ½, min (aq buffer) [4, 6] | τ½ of ester hydrolysis (value in brackets, alternative kinetic model) [5] [days] | k∙10^3 cis→trans in C6D6 [3] [s^−1] | k∙10^3 trans→cis in C6D6 [3] [s^−1] | k∙10^3 cis→trans in D2O [3] [s^−1] | k∙10^3 trans→cis in D2O [3] [s^−1] | also measured
1 | COC(=O)C1CCCN1C(C)=O (stereo not drawn) [compound 1, Methyl N-acetylprolinate] | -0.44 ± 0.05 | 5.10 ± 0.10 | 4.18±0.03 | 4.08±0.04 | 3.78±0.03 | 3.84±0.04 | 4.94 ± 0.05 | 224 ± 20 (pH 11.0) min | – | 342 ± 10 | 67 ± 2 | – | – | k∙10^3 cis→trans in D2O [2]: 33 ± 2^c s^−1; k∙10^3 trans→cis in D2O [2]: 7.0 ± 0.5^c s^−1
2 | CC(=O)N1CCC[C@H]1C(=O)OCC(F)F [compound 4, 2,2-Difluoroethyl N-acetylprolinate] | 0.02 | 9.06 ± 0.26 | 6.57±0.14 | 4.85±0.07 | 4.12±0.03 | 6.29±0.22 | 4.95 ± 0.05 | 19.7 ± 2.5 (pH 11.0) min | – | 430 ± 17 | 47 ± 2 | 32 ± 4 | 7 ± 1 | half-life at 0.5 mM ([4]; pH 7, extrapolated from pH 11 value, read-out: half-life extrapolated to pH 7.0 (converted)): 3290 h
3 | CC(=O)N1CCC[C@H]1C(=O)OCCF [compound 3, 2-Fluoroethyl N-acetylprolinate] | – | 6.80 ± 0.04 | 4.77±0.10 | 4.12±0.17 | 3.61±0.03 | 4.44±0.20 | 4.74 ± 0.04 | 80 ± 14 (pH 11.0) min | – | 348 ± 11 | 52 ± 2 | 30 ± 2 | 7 ± 1 | logP at 24 h [1]: -0.43 ± 0.07; ΔlogP vs 4 ([1]; octan-1-ol/water): −0.45 ± 0.13
4 | CC(=O)N1CCC[C@H]1C(N)=O [compound 7, reference compound] | -1.57 ± 0.1 | – | – | – | – | – | – | – | – | – | – | – | – | –
5 | CC(=O)N1CCC[C@H]1C(=O)OCC(F)(F)F [compound 5, 2,2,2-Trifluoroethyl N-acetylprolinate] | 0.55 | 10.04 ± 0.15 | 7.07±0.11 | 5.65±0.05 | 4.49±0.05 | 6.65±0.18 | 5.48 ± 0.14 | 6.4 ± 1.7 min | – | 477 ± 13 | 48 ± 2 | 35 ± 5 | 6 ± 1 | ΔlogP vs 4 ([1]; octan-1-ol/water): +0.53 ± 0.13; half-life at 0.5 mM ([4]; pH 8, extrapolated from pH 11 value (multiplication by 1000), read-out: half-life, extrapolation to pH 8.0 (converted)): 107 ± 28 h; half-life at 0.5 mM ([4]; pH 8, pH 8, 298 K, read-out: half-life at pH 8, experimentally determined (converted)): 102 ± 2 h; τ½, min (aq buffer) ([4]; pH 8.0, 298 K): 6112 ± 70 min
6 | CCOC(=O)C1CCCN1C(C)=O (stereo not drawn) [compound 2, Ethyl N-acetylprolinate] | 0 | 4.67 ± 0.03 | 3.52±0.03 | 3.58±0.04 | 3.49±0.04 | 3.20±0.04 | 4.60 ± 0.08 | 603 ± 58 (pH 11.0) min | – | 309 ± 14 | 67 ± 2 | 20 ± 5 | 6 ± 1 | ΔlogP vs 1 ([1]; octan-1-ol/water, relative to compound 1): +0.44 ± 0.08

Second part, led by results:

Row | logP at 24 h ([1]; octan-1-ol/water) | Ktrans/cis in C6D6 [3] | Ktrans/cis in CD2Cl2 [3] | Ktrans/cis in CD3CN [3] | Ktrans/cis in CD3OD [3] | Ktrans/cis in CDCl3 [3] | Ktrans/cis in D2O [3] | τ½, min (aq buffer) [4, 6] | τ½ of ester hydrolysis (value in brackets, alternative kinetic model) [5] [days] | Compound | k∙10^3 cis→trans in C6D6 [3] [s^−1] | k∙10^3 trans→cis in C6D6 [3] [s^−1] | k∙10^3 cis→trans in D2O [3] [s^−1] | k∙10^3 trans→cis in D2O [3] [s^−1] | also measured
7 | – | – | – | – | – | – | – | – | 4.5 ± 0.5 | CC(=O)N[C@@H](CCCCN)C(=O)N[C@@H](CCCCN)C(=O)N[C@@H](CCCCN)C(=O)OCC(F)F [peptide 9b, Ac(Lys)3OCH2CHF2∙3HCl] | – | – | – | – | τ½ of ester hydrolysis (value outside brackets) [5]: 5.0 ± 0.3 days and 5.0 ± 0.5 days; charge-induced hydrolysis acceleration factor vs 8b [5]: ≈ 30
8 | – | – | – | – | – | – | – | – | 3.7 ± 0.3 | CC(=O)N[C@@H](CCCCN)C(=O)N[C@@H](CCCCN)C(=O)N[C@@H](CCCCN)C(=O)N[C@@H](CCCCN)C(=O)N[C@@H](CCCCN)C(=O)N[C@@H](CCCCN)C(=O)OCC(F)F [peptide 10b, Ac(Lys)6OCH2CHF2∙6HCl] | – | – | – | – | τ½ of ester hydrolysis (value outside brackets) [5]: 4.0 ± 0.3 days; charge-induced hydrolysis acceleration factor vs 8b [5]: ≈ 30
9 | – | – | – | – | – | – | – | – | 139 ± 20 | CC(=O)N1CCC[C@H]1C(=O)N1CCC[C@H]1C(=O)N1CCC[C@H]1C(=O)N1CCC[C@H]1C(=O)N1CCC[C@H]1C(=O)N1CCC[C@H]1C(=O)OCC(F)F [peptide 8b, Ac(Pro)6OCH2CHF2] (Ac-PPPPPP-X1) | – | – | – | – | –
